Measured values published in PMC12349723, “Computationally accelerated identification of P-glycoprotein inhibitors” (PLOS One, 2025).
“And” between values parts separate entries of the source, which are not always exact repeats. Equal entries are not always repeated.

Experiments:
P-gp = molecular target: T1, P-gp (Homo sapiens, UniProt P08183); test: LC-MS/MS intracellular accumulation assay with or without tariquidar (P-gp transport substrate test) in DU145-TXR cells; type: in vitro ADME; details: for Intracellular accumulation (normalized ratio of compound to internal standard), Trial 1, + TQR / Intracellular accumulation (normalized ratio of compound to internal standard), Trial 2, + TQR / Intracellular accumulation (normalized ratio of compound to internal standard), Trial 1, - TQR / Intracellular accumulation (normalized ratio of compound to internal standard), Trial 2, - TQR / Intracellular accumulation (normalized ratio of compound to internal standard), Trial 3, + TQR / Intracellular accumulation (normalized ratio of compound to internal standard), Trial 3, - TQR: 5 µM compound, mean ± SD, triplicate; for Intracellular accumulation (normalized ratio of compound to internal standard), Trial 1, + TQR / Intracellular accumulation (normalized ratio of compound to internal standard), Trial 2, + TQR / Intracellular accumulation (normalized ratio of compound to internal standard), Trial 3, + TQR: with 500 nM tariquidar; for Intracellular accumulation (normalized ratio of compound to internal standard), Trial 1, - TQR / Intracellular accumulation (normalized ratio of compound to internal standard), Trial 2, - TQR / Intracellular accumulation (normalized ratio of compound to internal standard), Trial 3, - TQR: without tariquidar; for P (- TQR vs + TQR), Trial 1 / P (- TQR vs + TQR), Trial 2 / P (- TQR vs + TQR), Trial 3: Student's T test of the mean
T1 construct: The MDR, P-gp overexpressing DU145-TXR cells were maintained under positive selection pressure; endogenous in cells; host or cells: DU145-TXR (paclitaxel-resistant sub-line of DU145 human prostate cancer cells)
Description: DU145-TXR cells were seeded at 350,000 cells per well in 6-well plates in complete RPMI medium. […] A full sample of DAU was also prepared for quantitative analysis. […] Media was removed with a glass vacuum aspirator. Cells were re-suspended and washed in 2mL of ice-cold Hank’s Balanced Salt Solution (HBSS, Gibco), and spun again at 2400 rpm. Cell lysates were diluted in 600 µL of ice-cold HBSS, flash-frozen in liquid nitrogen, and stored at −80 °C until analysis. LC-MS/MS intracellular accumulation assays were performed in collaboration with the Pharmacology Core at the University of Texas Southwestern Medical Center (UTSW). […] This method allowed us to quantify the change – if any – in the relative amount of compound present in the samples when TQR was added. An increase in the relative amount of compound indicates enhanced intracellular retention that compound. […] The “Internal Standard” (IS) is a known substance added in a constant amount to each sample. The “Peak Area”, expressed as “counts”, describes the number of MS/MS spectra from the experimental compound and serves as a measure of its relative abundance. […] These values allow a comparison of the relative abundance of compound between the “- TQR” and “+ TQR” samples, and to test for statistically significant differences. LC-MS/MS quantification was performed as follows. Cell lysate was aliquoted into Eppendorf tubes. In contrast to [9], blank cell lysates were not spiked with varying concentrations of each compound to create a standard curve, since compound amounts were normalized to abundance of the internal standard. […] The supernatant was then transferred to an HPCL vial, and subsequently analyzed using LC-MS/MS using a Sciex 4000QTRAP mass spectrometer coupled to a Shimadzu Prominence LC. […] The column flow rate was 1.5 ml/min using an Agilent C18 XDB, 5 micron packing 50 × 4.6 mm column. […] A BSA standard curve was then prepared in water and mixed using the same ratio. […] The ratio of Analyte to Internal Standard was normalized to the lysate content for each individual sample. […] Statistical significance was determined using a Student’s T Test in GraphPad Prism. We aimed to identify P-gp inhibitors that are not transport substrates of the pump itself. […] To test these predictions in vitro, liquid chromatography with tandem mass spectrometry (LC-MS/MS) was used to assess the intracellular accumulation of experimental compounds as described in [9]. […] The relative intracellular accumulation of each experimental compound was then assessed using LC-MS/MS. […] The P-gp substrate and chemotherapeutic daunorubicin (DAU) was used as a positive control for P-gp-mediated transport.

A2780 cells = test: MTT viability assay, parental A2780 cells, with or without PTX; type: cell-based, human; details: for Mean % Survival / % Survival (individual sample): A2780 cells; for % Survival (individual sample): single samples
Description: The chemotherapeutic sensitive DU145 human prostate cancer cells and the multidrug resistant sub-line, DU145-TXR, were generous gifts from Dr. Evan Keller (University of Michigan, Ann Arbor, MI). The MDR, P-gp overexpressing DU145-TXR cells were maintained under positive selection pressure by supplementing complete medium with 10 nM paclitaxel (Acros Organics, NJ). In addition to the aforementioned cell lines, the chemotherapeutic sensitive A2780 ovarian cancer cells (93112519, Sigma) and the multidrug resistant A2780-ADR (93112520, Sigma) were maintained in complete RPMI media consisting of RPMI-1640 with L-glutamine, 10% fetal bovine serum (FBS; Corning), 100 U/mL penicillin and 100 μg/mL streptomycin in a humidified incubator at 37 °C and 5% CO2. The MDR, P-gp overexpressing A2780-ADR cell line was maintained under positive selection pressure by supplementing complete medium with 100 nM doxorubicin (Fisher Scientific, NJ). The non-cancerous HFL1 (human lung fibroblast) cell line cell line was a generous gift from Dr. Robert Harrod (Southern Methodist University, Dallas, TX) and was maintained in complete F12K media consisting of F12K with 10% fetal bovine serum, 100 U/mL penicillin, and 100 µg/mL streptomycin (Gibco). Flasks and 96 well plates that were used with the non-cancerous line HFL1 were pre-treated with 0.1 mg/ml Collagen Type 1 (Gibco) and rinsed with PBS (Fisher).
Culture of the DU145, DU145-TXR, and HFL1 cell lines was performed as described in [8]. Culture of the A2780 and A2780-ADR cell lines was performed as described in [9]. MTT assays were performed as described in [8] with minor modifications. LC-MS/MS accumulation assays were performed as described in {Nanayakkara, 2018 #173} [9] with some modifications. […] The inhibitor concentration was lowered to 15 µM here, as the goal of the study was to identify compounds that were effective in reversing MDR at low concentrations, and to determine if the expanded virtual-assisted methods improved on our first-draft attempt. Compounds 56–98 were pre-screened using Resazurin cell viability assays: cells were incubated with 15 µM compound with or without 500 nM PTX for 48 hours, after which cell survival was assessed similar to [39]. Data represent the mean of two separate experiments, with n = 3 samples per experiment (n = 6 total) (S4 Table). The top performing compounds from this initial screen were re-tested with MTT viability assays against DU145-TXR cells, as described below.
MTT assays measure the reduction of yellow, water soluble 3-(4,5-dimethylthiazol-2-yl)-2,5-diphenyltetrazolium bromide (MTT) to blue, insoluble formazan crystals by cellular reductase processes in living cells. Cells were trypsinized from monolayers and seeded in complete medium in 96 well plates. Cancerous cell lines (DU145, DU145-TXR, A2780, A2780-ADR) were seeded at 3,000 cells per well in complete RPMI medium. The non-cancerous HFL1 line was seeded at 4,000 cells per well in complete F12K medium, in collagen-treated plates (Collagen Type 1, Gibco). Cells were incubated with experimental compounds for 48 hours at 37 °C and 5% CO2 in a humidified incubator. At 48 hours, MTT was added (20 µL/well of 5 mg/mL MTT in PBS) to each well. After incubation for 4 hours, the media was removed, and the formazan crystals were dissolved in 100 µL DMSO per well. Plates containing the semi-adherent A2780 or A2780-ADR lines were spun at 1400 rpm for 3 minutes prior to aspiration of media, and the addition of DMSO. Plates were shaken for 10 minutes at 500 rpm on an Orbital shaker (LabDoctor from MidSci, St Louis, MO). The absorbance was measured at 570 nm using a Bio-Tek Cytation 5 (Bio-Tek, Winooski, VT). The measured absorbance value was correlated with the number of metabolically active cells in that well, corrected for absorbance of media. […]

[1] = 15 µM compound + 500 nM PTX, mean of 8 or 12 samples
[2] = Homo sapiens, A2780, A2780 cells, 15 µM compound alone, mean of 8 or 12 samples, read-out: Mean % Survival
[3] = significant difference = likely P-gp transport substrate
[4] = 1 µM compound + 500 nM PTX, mean of 12 samples

T1 sequence (P08183 whole entry): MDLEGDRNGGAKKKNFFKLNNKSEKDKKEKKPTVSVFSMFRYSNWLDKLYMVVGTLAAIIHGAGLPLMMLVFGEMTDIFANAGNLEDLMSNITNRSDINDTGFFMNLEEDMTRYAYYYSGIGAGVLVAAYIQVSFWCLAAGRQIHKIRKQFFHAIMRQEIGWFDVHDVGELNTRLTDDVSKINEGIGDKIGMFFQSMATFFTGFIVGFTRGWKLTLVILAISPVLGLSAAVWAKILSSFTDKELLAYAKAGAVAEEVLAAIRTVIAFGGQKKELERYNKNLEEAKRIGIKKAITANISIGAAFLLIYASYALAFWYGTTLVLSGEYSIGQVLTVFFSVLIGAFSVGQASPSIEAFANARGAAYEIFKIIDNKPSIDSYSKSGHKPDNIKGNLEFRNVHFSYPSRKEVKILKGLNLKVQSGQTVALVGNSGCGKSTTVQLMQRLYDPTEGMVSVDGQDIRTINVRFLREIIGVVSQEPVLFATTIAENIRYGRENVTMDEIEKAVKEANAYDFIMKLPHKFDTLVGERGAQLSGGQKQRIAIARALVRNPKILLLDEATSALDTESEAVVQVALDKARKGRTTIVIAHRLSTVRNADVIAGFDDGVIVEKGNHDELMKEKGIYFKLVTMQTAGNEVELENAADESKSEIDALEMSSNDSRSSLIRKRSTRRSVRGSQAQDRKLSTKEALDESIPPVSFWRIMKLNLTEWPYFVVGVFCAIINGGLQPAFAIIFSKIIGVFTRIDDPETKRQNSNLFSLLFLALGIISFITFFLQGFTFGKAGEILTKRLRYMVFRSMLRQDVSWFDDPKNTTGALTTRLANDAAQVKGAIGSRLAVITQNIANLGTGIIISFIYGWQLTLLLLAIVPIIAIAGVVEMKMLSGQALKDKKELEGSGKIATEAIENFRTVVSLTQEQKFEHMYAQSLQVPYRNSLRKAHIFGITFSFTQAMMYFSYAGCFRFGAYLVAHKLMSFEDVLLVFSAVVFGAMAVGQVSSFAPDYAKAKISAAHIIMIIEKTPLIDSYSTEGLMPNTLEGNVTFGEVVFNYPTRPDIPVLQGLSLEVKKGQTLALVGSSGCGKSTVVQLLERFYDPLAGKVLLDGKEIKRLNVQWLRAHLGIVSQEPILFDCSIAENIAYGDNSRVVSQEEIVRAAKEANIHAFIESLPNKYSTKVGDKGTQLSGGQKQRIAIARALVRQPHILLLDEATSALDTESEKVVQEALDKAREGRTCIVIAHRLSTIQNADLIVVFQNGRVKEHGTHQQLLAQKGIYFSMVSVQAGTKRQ

| Structure (SMILES) | Intracellular accumulation (normalized ratio of compound to internal standard), Trial 1, + TQR (P-gp; DU145-TXR, 2.5 h) | Intracellular accumulation (normalized ratio of compound to internal standard), Trial 2, + TQR (P-gp; DU145-TXR, 2.5 h) | Intracellular accumulation (normalized ratio of compound to internal standard), Trial 1, - TQR (P-gp; DU145-TXR, 2.5 h) | Intracellular accumulation (normalized ratio of compound to internal standard), Trial 2, - TQR (P-gp; DU145-TXR, 2.5 h) | P (- TQR vs + TQR), Trial 1 (P-gp) | P (- TQR vs + TQR), Trial 2 (P-gp) | Mean % Survival (A2780 cells; [1]) | % Survival (individual sample) (A2780 cells; 15 µM compound + 500 nM PTX) | viability at 15 µM (A2780 cells; [2]) | other results |
| --- | --- | --- | --- | --- | --- | --- | --- | --- | --- | --- |
| Nc1nonc1-n1nnc(C(=O)N/N=C/c2c3ccccc3cc3ccccc23)c1COc1ccc(F)cc1 [Compound 60, Nc1nonc1-n1nnc(C(=O)N\N=C\c2c3ccccc3cc3ccccc23)c1COc1ccc(F)cc1] | 0.282 ± 0.010 | 0.250 ± 0.003 | 0.231 ± 0.165 | 0.250 ± 0.003 | 0.6 | > 1 |  |  |  |  |
| NS(=O)(=O)c1cccc(NC(=O)CSc2nnnn2C2CC2)c1 [Compound 89, NS(=O)(=O)c1cccc(NC(=O)CSc2nnnn2C2CC2)c1] |  |  |  |  |  |  | 10.3% | 8% and 12% | 87.9% | % Survival (individual sample) (A2780 cells; 15 µM compound alone): 96% |
| O=S(=O)(CCSc1nnc(-c2ccccc2)c2ccccc12)c1ccccc1 [Compound 96, O=S(=O)(CCSc1nnc(-c2ccccc2)c2ccccc12)c1ccccc1] | 0.092 ± 0.036 | 0.163 ± 0.032 | 0.087 ± 0.009 | 0.121 ± 0.005 | 0.8 | 0.09 | 13.9% | 19% and 20% | 76.5% | Increase of PTX toxicity against parental A2780 cells (A2780 cells; 15 µM compound with or without 500 nM PTX, 48 h, MTT): did not greatly increase the toxicity of PTX against the parental A2780 cells; P-gp transport substrate assessment (P-gp; DU145-TXR, 5 µM compound with or without 500 nM tariquidar, 2.5 h, LC-MS/MS): unlikely to be transport substrates of P-gp; Significance of accumulation with tariquidar, Trial 1 (P-gp; [3]): N.S. (P > 0.05 = not significant (N.S.)); Significance of accumulation with tariquidar, Trial 2 (P-gp; [3]): N.S. (P > 0.05 = not significant (N.S.)) |
| Cn1cnnc1SCc1c(C(=O)O)nnn1-c1nonc1N [Compound 59, Cn1cnnc1SCc1c(nnn1-c1nonc1N)C(O)=O] |  |  |  |  |  |  | 11.4% | 6% and 9% | 99% |  |
| CCN1CCN(Cc2c(C(=O)N/N=C3/C(=O)N(C)c4ccccc43)nnn2-c2nonc2N)CC1 [Compound 61, CCN1CCN(Cc2c(nnn2-c2nonc2N)C(=O)N\N=C2\C(=O)N(C)c3ccccc23)CC1] | 0.076 ± 0.001 | 0.027 ± 0.011 | 0.023 ± 0.002 | 0.016 ± 0.006 | 2 x 10^-6 | 0.2 |  |  |  | Intracellular accumulation (normalized ratio of compound to internal standard), Trial 3, + TQR (P-gp; DU145-TXR, 2.5 h): 0.126 ± 0.010; Intracellular accumulation (normalized ratio of compound to internal standard), Trial 3, - TQR (P-gp; DU145-TXR, 2.5 h): 0.021 ± 0.004; P (- TQR vs + TQR), Trial 3 (P-gp): 0.0001 |
| COc1ccc2c3c([nH]c2c1)[C@H](CC(C)C)N1C(=O)[C@H](CCC(=O)OC(C)(C)C)NC(=O)[C@@H]1C3 [Ko143, reference compound] |  |  |  |  |  |  |  |  |  | Mean % Survival (A2780 cells; [4]): 12.8%; % Survival (individual sample) (A2780 cells; 1 µM compound + 500 nM PTX): 16% and 15% and 9% and 49% and 7% and 8% and 10%; % Survival (individual sample) (A2780 cells; 1 µM compound alone): 88% and 85% and 84% and 87% and 89% and 40% and 99% and 90% and 97% and 92%; Mean % Survival (A2780 cells; mean of 12 samples): 85.3% |
| O=C(c1cc2ccccc2[nH]1)N1CCN(S(=O)(=O)c2cccc3nonc23)CC1 [Compound 66, O=C(N1CCN(CC1)S(=O)(=O)c1cccc2nonc12)c1cc2ccccc2[nH]1] | 0.833 ± 0.124 | 0.036 ± 0.005 | 0.747 ± 0.096 | 0.040 ± 0.001 | 0.4 | 0.2 |  |  |  | Intracellular accumulation (normalized ratio of compound to internal standard), Trial 3, + TQR (P-gp; DU145-TXR, 2.5 h): 0.140 ± 0.029; Intracellular accumulation (normalized ratio of compound to internal standard), Trial 3, - TQR (P-gp; DU145-TXR, 2.5 h): 0.170 ± 0.039; P (- TQR vs + TQR), Trial 3 (P-gp): 0.3 |
| COc1cc2c(cc1OC)CN(CCc1ccc(NC(=O)c3cc(OC)c(OC)cc3NC(=O)c3cnc4ccccc4c3)cc1)CC2 [Tariquidar, reference compound] |  |  |  |  |  |  |  |  |  | Mean % Survival (A2780 cells; [4]): 17.8%; % Survival (individual sample) (A2780 cells; 1 µM compound + 500 nM PTX, listed as TQR): 12%; viability at 1 µM (A2780 cells; Homo sapiens, A2780, A2780 cells, 1 µM compound alone, mean of 12 samples, read-out: Mean % Survival): 106% |
| COc1ccc(OC)c(NC(=O)c2nnn(-c3ccc4noc(-c5ccccc5)c4c3)c2C)c1 [Compound 71, COc1ccc(OC)c(NC(=O)c2nnn(c2C)-c2ccc3noc(-c4ccccc4)c3c2)c1] | 0.067 ± 0.005 | 0.091 ± 0.043 | 0.085 ± 0.013 | 0.071 ± 0.009 | 0.09 | 0.5 |  |  |  |  |
